From US20090012179A1, “Use of Tyrphostins to Stimulate Neurite Outgrowth” (priority 2004, published 2009)
“Also recorded” adds a separate entry of the source.

Legend:
ERK2 (p42) = ERK2 (p42) activation in NS20Y cells; type: cell-based, mouse
Method: Cell stimulation, immunoblotting, and immunoprecipitation: Cells or neurons are grown in 6-well or 12-well plates to 80-90% confluence. The cells are starved in serum-free DMEM overnight, and then incubated with receptor agonists at 37° C. for the indicated durations. In some experiments, signaling inhibitors are added 45 minutes before simulation. Incubation is terminated by placing the tissue culture cluster on ice and rapidly aspirating the medium, followed by the addition of ice-cold RIPA^+ buffer (50 mM Tris-HCl, pH 7.5, 150 mM NaCl, 1% NP-40, 0.5% deoxycholate, 0.1% SDS, 1 mM NaVO3, and protease inhibitor (Calbiochem, San Diego, Calif.)) and incubation for 15 minutes with shaking. After centrifugation (14,000×g at 4° C. for 15 minutes), the supernatant is collected and the protein concentration is measured and adjusted using RIPA^+ buffer. Samples (30 μl) with equal amounts of protein mixed with Laemmli loading buffer are denatured at 70° C. for 10 minutes and separated by SDS-PAGE. […] The proteins are transferred to PVDF membrane (Millipore), detected with the primary antibodies (including anti-active ERK; anti-p-Tyr clone 4G10, Upstate; anti-TH; anti-DAT, sigma, anti-β-tubulin, etc.) and visualized with the SuperSignal™ West Pico chemiluminescent kit (Pierce Biotechnology, Rockford, Ill.). The intensity of bands is quantified using ImageQuant™ 5.2 (Amersham). […]

SH-SY5Y cells = test: Neurite length in NGF-treated SH-SY5Y neuroblastoma cells; type: cell-based, human; conditions: 96 and 168 hours; for Neurite length / neurite elongation: SH-SY5Y + NGF 10 ng/ml, FK506 100 nM, A9 10 nM, 100 nM and 1 μM
Method: Analysis of neurite length in SH-SY5Y neuroblastoma cells: SH-SY5Y neuroblastoma cells develop axonal-like processes on treatment with NGF. For analysis of process length, cells (20 fields/well) are randomly photographed at 96 and 168 hours. Neurite lengths are measured on photographic prints using a Houston Instrument HI-PAD digitizing tablet connected to a computer with appropriate software (Bioquant IV); only processes more than twice the cell body length are measured. Data from identically treated wells are combined. […] Histograms are compared using a Mann-Whitney U test (α=0.05), which makes no assumptions about the shape of the distribution.
As disclosed herein, high and sustained ERK activation induces neurite growth in […] neuroblastoma cells and protects neuronal cells from neurotoxins. To test this, SH-SY5Y human neuroblastoma cells were used, which can be induced into neuron-like phenotype by NGF treatment. This is an established method for measuring neurite growth-promoting activity in vitro in Dr. Gold's lab (Gold et al., Neurosignals. 13:122-129, 2004; Gold et al., Exp. Neurol. 147:269-278, 1997). […] Representative micrographs at 168 hours for vehicle (control), NGF (10 ng/ml), and NGF (10 ng/ml) plus A9 (100 nM) are shown in FIG. 5B.

[1] = Stability of A9 in solution; type: physicochemical
Method: 5. Physical properties: A9 stock can be dissolved in ethanol, methylene chloride, or DMSO as high as 25 mg/ml. The stock of A9 can then be diluted in water or saline. The final concentration in saline can reach 10 mg/ml according to our experience. A9 is very stable in organic solvents and keeps its activity (indicated by its ability to stimulate ERK activation in NS20Y cells, data not shown) for 6 months at room temperature. […] In saline, its half-life was reported to be 4 days at 37° C. (Golumb, Atherosclerosis 125:171-182, 1996). […] A similar evaluation of the chemical nature of any tyrphostin can be used to determine if it is of use to induce neurite outgrowth and regeneration in a subject.

ERK = ERK activation in SH-SY5Y cells; type: cell-based, human
Method: SH-SY5Y cells are treated with A9, NGF ([…]), or EGF (10 ng/ml) for different durations, including 5, 15, 30, 60, and 120 minutes, to generate time-response curves for A9, NGF, and EGF. The level of ERK activation is measured by immunoblotting for the active (phosphorylated) ERK. The time-point with the maximum ERK response determined above is chosen for immunoprecipitation studies to assess the activation of PI3K, PDK1, and PKB/Akt. Cells are lysed with RIPA^+ buffer and precipitated with polyclonal antibodies for PI3K, PDK1, and PKB/Akt, and then the presence of p-Tyr in the precipitates will be determined by immunoblotting with the specific p-Tyr monoclonal antibody 4G10 (Upstate).

SMILES: CC(C)(C)c1cc(C=C(C#N)C#N)cc(C(C)(C)C)c1O [A9, tyrphostin A9]
- ERK2 (p42) stimulation (ERK2 (p42)): little stimulation on ERK2 (p42); also recorded: little effect on ERK2
- Neurite length / neurite elongation (SH-SY5Y cells): dramatically increased in length
- Neurite length / neurite elongation (SH-SY5Y cells; listed as tyrphostin A9): stimulated neurite elongation
- Distribution of neurite length (cumulative histograms), shift to the right versus NGF-treated (SH-SY5Y cells; SH-SY5Y): more pronounced
- Effect of repeated freeze/thaw cycles on activity ([1]; in organic solvents): do not affect its activity
- Time for which activity is kept in organic solvents ([1]; room temperature, activity by ERK activation in NS20Y cells): 6 months
- ERK activation in SH-SY5Y, indicated by use of MEK inhibitor PD98059 (ERK): ERK is activated
